Test results from patent EP4729615A1, “SIRNA TARGETING MMP7, SIRNA CONJUGATE AND MEDICAL USE THEREOF” (Tuojie Biotech (Shanghai) Co., Ltd., priority 2023, dated 2024).
Strand notation (5' to 3'): a small letter for the sugar, then the base; units joined by * are phosphorothioate-linked, units joined directly phosphodiester-linked; [ ] holds rarer units or linkages, { } end groups; capitals alone tell only the bases. {I-14} = ligand I-14 conjugated at sense 5' end; m = 2'-O-methyl; f = 2'-fluoro

Key:
MMP7 mRNA = test: on-target activity of siRNA conjugates at 2 endogenous concentration points in HCC38 cells, Q-PCR (Example 10); type: cell-based, human; details: 24 h after transfection; for 2 nM remaining expression (%): siRNA conjugate 2 nM; for 10 nM remaining expression (%): siRNA conjugate 10 nM
Protocol: The siRNA conjugates were subjected to an in vitro molecular-level activity screening in HCC38 cells using 2 concentration gradients.
HCC38 cells were cultured at 37 °C with 5% CO2 in a 1640 culture medium containing 10% fetal bovine serum. 24 h prior to transfection, the HCC38 cells were seeded into a 96-well plate at a density of 1.5 × 10^4 cells per well, with each well containing 100 µL of the culture medium.
The cells were transfected with the siRNA conjugates using Lipofectamine RNAi Max (Invitrogen, 13778-150) according to the instructions. 0.3 µL of Lipofectamine RNAi Max was used for each well. A total of 2 concentration points were set for the siRNA conjugates, i.e., 10 nM and 2 nM, respectively. 24 h after transfection, RNA was extracted for Q-PCR to detect the activity of the siRNA conjugates. […] Table 9. Activity results of siRNA conjugates at 2 concentration points at the HCC38 cellular level

[1] = molecular target: human recombinant αvβ6 protein (Homo sapiens, UniProt P06756+P18564); test: fluorescence polarization (FP) binding assay with fluorescent RGD peptide; details: 12 concentration points, highest 10 µM, 3-fold serial dilution
human recombinant αvβ6 protein, sequence (P06756 31-992 limits assumed): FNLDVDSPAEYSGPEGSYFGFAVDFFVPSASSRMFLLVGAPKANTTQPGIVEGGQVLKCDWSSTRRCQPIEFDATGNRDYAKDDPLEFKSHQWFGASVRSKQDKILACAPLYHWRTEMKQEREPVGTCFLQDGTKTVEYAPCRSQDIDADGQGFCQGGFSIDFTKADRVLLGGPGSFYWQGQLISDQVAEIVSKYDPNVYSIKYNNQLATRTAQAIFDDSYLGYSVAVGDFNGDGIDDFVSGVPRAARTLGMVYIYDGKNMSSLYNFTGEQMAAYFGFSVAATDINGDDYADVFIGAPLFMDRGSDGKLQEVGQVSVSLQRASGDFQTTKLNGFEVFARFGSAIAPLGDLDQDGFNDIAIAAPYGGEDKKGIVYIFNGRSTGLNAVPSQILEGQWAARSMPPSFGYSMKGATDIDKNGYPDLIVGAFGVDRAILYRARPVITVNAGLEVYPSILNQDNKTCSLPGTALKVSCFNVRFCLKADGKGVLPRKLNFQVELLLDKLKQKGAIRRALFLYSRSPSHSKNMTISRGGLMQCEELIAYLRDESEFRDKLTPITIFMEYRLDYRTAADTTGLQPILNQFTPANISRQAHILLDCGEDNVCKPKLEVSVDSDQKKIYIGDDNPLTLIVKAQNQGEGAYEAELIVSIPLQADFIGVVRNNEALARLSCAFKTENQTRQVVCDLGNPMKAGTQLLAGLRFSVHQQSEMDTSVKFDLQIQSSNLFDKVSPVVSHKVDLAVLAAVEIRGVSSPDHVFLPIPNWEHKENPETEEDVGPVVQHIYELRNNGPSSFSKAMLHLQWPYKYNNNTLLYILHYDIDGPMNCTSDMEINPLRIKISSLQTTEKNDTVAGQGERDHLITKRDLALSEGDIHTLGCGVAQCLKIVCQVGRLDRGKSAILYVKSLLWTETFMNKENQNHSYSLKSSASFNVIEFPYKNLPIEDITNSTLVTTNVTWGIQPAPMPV
human recombinant αvβ6 protein, sequence (P18564 22-707 limits assumed): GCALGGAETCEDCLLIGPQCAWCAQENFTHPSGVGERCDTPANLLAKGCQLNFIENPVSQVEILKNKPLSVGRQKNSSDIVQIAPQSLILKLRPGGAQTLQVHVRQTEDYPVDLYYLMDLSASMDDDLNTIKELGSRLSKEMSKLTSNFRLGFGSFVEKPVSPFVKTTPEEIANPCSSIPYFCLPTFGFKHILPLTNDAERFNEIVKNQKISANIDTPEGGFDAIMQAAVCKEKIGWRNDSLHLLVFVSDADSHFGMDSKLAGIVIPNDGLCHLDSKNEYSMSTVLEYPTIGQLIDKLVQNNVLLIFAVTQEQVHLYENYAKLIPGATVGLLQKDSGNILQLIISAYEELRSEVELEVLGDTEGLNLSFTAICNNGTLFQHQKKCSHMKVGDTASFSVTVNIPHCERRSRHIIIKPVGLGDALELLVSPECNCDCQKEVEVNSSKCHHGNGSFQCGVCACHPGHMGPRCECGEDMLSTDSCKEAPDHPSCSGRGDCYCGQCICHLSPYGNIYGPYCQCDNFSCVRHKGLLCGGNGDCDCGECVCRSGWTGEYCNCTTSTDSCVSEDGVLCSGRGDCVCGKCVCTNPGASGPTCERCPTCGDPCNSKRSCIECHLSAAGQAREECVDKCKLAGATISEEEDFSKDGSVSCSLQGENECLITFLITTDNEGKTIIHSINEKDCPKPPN
Protocol: The specific assay method is as follows: • 3.5 µL of test compound I-12 was added to a 384-well black plate. For the test compound, 12 concentration points were set up. The highest concentration was 10 µM, and 3-fold serial dilution was performed. DMSO control wells were used to determine the maximum signal, and 500 nM compound CWHM-12 (MCE, HY-18644) control wells were used as the minimum signal. Then, 3.5 µL of 4× human recombinant αvβ6 protein working solution was added. After incubation at room temperature for 15 min, 7 µL of 2× fluorescent RGD peptide solution was added to each well. The plate was incubated at room temperature for 1 h, and then FP signals were read using Envision. Using GraphPad Prism, the inhibition curve fitting was performed, and the IC50 value was calculated. The IC50 value (Z prime > 0.5) was calculated using the following formula: Y = Bottom + (Top−Bottom)/(1+10^(∧)((LogIC50−X)×HillSlope)) [formula] • X: Log inhibitor concentration; Y: inhibition rate %.

| Molecule | 2 nM remaining expression (%) (MMP7 mRNA) | 10 nM remaining expression (%) (MMP7 mRNA) | IC50 [1] |
| --- | --- | --- | --- |
| TJR103314: siRNA conjugate containing I-14; SS SEQ ID NO 30 (I-14AmsUmsUmCmAmAmGfAfAfAmGmAmAmAmUmAmGmAmAm), AS SEQ ID NO 60 (sense {I-14}-mA*mU*mUmCmAmAfGfAfAmAmGmAmAmAmUmAmGmAmA; antisense UUCUAUUUCUUUCUUGAAUUA; antisense: chemistry not given here) | 14.73% | 8.03% |  |
| TJR103312: siRNA conjugate containing I-14; SS SEQ ID NO 28 (I-14UmsGmsGmGmUmAmGfAfUfGmUmCmAmAmUmAmAmAmUm), AS SEQ ID NO 58 (sense {I-14}-mU*mG*mGmGmUmAfGfAfUmGmUmCmAmAmUmAmAmAmU; antisense AUUUAUUGACAUCUACCCACU; antisense: chemistry not given here) | 11.35% | 8.20% |  |
| [N-]=[N+]=NCCOCCOCCOCCOCCOc1ccc(-c2ccc([C@H](CC(=O)O)NC(=O)CNC(=O)CCCNc3cc4ccccc4cn3)cc2)c2ccccc12 [I-12] |  |  | 79.9 nM |
| TJR103313: siRNA conjugate containing I-14; SS SEQ ID NO 29 (I-14UmsGmsAmCmUmCmAfGfAfAmAmCmAmAmAmAmAmAmUm), AS SEQ ID NO 59 (sense {I-14}-mU*mG*mAmCmUmCfAfGfAmAmAmCmAmAmAmAmAmAmU; antisense AUUUUUUGUUUCUGAGUCAUA; antisense: chemistry not given here) | 8.05% | 4.23% |  |
